From ChEMBL document CHEMBL1201862, “PubChem BioAssay data set” (2004)
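Compound exposure: 48 hours, 5 concentrations, 96-well plates. GI50 marks 50% less growth.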 Active and inactive are the calls of the source. No stated cut-off is given here; in the data, active = GI50 up to about 1.1 µM and inactive = higher.

Key:
Assay in all cases: growth of human tumour cells (NCI), 48 h
SNB-19 = tested on: SNB-19
MOLT-4 = tested on: MOLT-4
OVCAR-3 = tested on: OVCAR-3
RXF 393 = tested on: RXF 393
MDA-MB-231 = tested on: MDA-MB-231
HL-60 = tested on: HL-60
HCT-15 = tested on: HCT-15
T47D = tested on: T47D
PC-3 = tested on: PC-3
SK-MEL-2 = tested on: SK-MEL-2
HOP-62 = tested on: HOP-62
M14 = tested on: M14
HOP-92 = tested on: HOP-92
SW-620 = tested on: SW-620
U-251 = tested on: U-251
COLO 205 = tested on: COLO 205
Malme-3M = tested on: Malme-3M
786-0 = tested on: 786-0
SK-MEL-5 = tested on: SK-MEL-5
NCI/ADR-RES = tested on: NCI/ADR-RES

SMILES	GI50 (SNB-19)	GI50 (MOLT-4)	GI50 (OVCAR-3)	GI50 (RXF 393)	GI50 (MDA-MB-231)	GI50 (HL-60)	GI50 (HCT-15) [µM]	GI50 (T47D)	GI50 (PC-3)	GI50 (SK-MEL-2)	GI50 (HOP-62)	GI50 (M14)	GI50 (HOP-92)	GI50 (SW-620)	GI50 (U-251)	GI50 (COLO 205)	GI50 (Malme-3M)	GI50 (786-0)	GI50 (SK-MEL-5)	GI50 (NCI/ADR-RES)
CN(CCCN(C)Cc1ccc(Cl)c(Cl)c1)CCN1CCCC1	22.5 µM (inactive)	6.27 µM (inactive)	60.3 µM (inactive)	15.1 µM (inactive)	13.1 µM (inactive)	23.4 µM (inactive)	29	29.9 µM (inactive)	28.2 µM (inactive)	11 µM (inactive)	26.5 µM (inactive)	5.73 µM (inactive)	4.16 µM (inactive)	19.7 µM (inactive)	16.8 µM (inactive)	9.35 µM (inactive)	15.8 µM (inactive)	13.5 µM (inactive)	6.92 µM (inactive)	> 66.5 µM (inactive)
O=C1/C(=C\c2ccc(Cl)cc2Cl)Sc2scc(-c3cccc([N+](=O)[O-])c3)[n+]21	12.8 µM (inactive)	1.45 µM (inactive)	8.13 µM (inactive)	6.25 µM (inactive)	9.14 µM (inactive)	0.49 µM (active)	1.81	12.2 µM (inactive)	15.6 µM (inactive)	14.2 µM (inactive)	16.5 µM (inactive)	6.04 µM (inactive)	5.89 µM (inactive)	3.62 µM (inactive)	13.9 µM (inactive)	0.59 µM (active)	8.11 µM (inactive)	3.39 µM (inactive)	2.09 µM (inactive)	8.75 µM (inactive)
O=C(Oc1cccc2cccnc12)c1cc2cc(CCl)ccc2oc1=O	43.7 µM (inactive)	2.8 µM (inactive)	3.68 µM (inactive)	17.3 µM (inactive)	27.1 µM (inactive)	3.22 µM (inactive)	2.77	4.29 µM (inactive)	12.7 µM (inactive)	17.6 µM (inactive)	44.3 µM (inactive)	5.64 µM (inactive)	34.2 µM (inactive)	4.56 µM (inactive)	24.3 µM (inactive)	6.3 µM (inactive)	15.7 µM (inactive)	20.7 µM (inactive)	21.9 µM (inactive)	4.18 µM (inactive)
Clc1ccc2c(SCC3CO3)c3ccccc3nc2c1 (centres undefined)	5.43 µM (inactive)	1.85 µM (inactive)	1.73 µM (inactive)	2.66 µM (inactive)	2.33 µM (inactive)	1.04 µM (active)	1.68	1.66 µM (inactive)	2.65 µM (inactive)	2.7 µM (inactive)	6.25 µM (inactive)	1.72 µM (inactive)	2.12 µM (inactive)	1.92 µM (inactive)	1.84 µM (inactive)	3.02 µM (inactive)	2.04 µM (inactive)	1.81 µM (inactive)	4.84 µM (inactive)	2.43 µM (inactive)
CC(=O)OCc1ccc2c(c1)C(O)NC(=O)O2 (centres undefined)	> 100 µM (inactive)	12.8 µM (inactive)	21.8 µM (inactive)	> 100 µM (inactive)	> 100 µM (inactive)	> 100 µM (inactive)	44.3	34.6 µM (inactive)	> 100 µM (inactive)	> 100 µM (inactive)	> 100 µM (inactive)	> 100 µM (inactive)	> 100 µM (inactive)	72.8 µM (inactive)	58.6 µM (inactive)	> 100 µM (inactive)	42.4 µM (inactive)	> 100 µM (inactive)	72.9 µM (inactive)	> 100 µM (inactive)
Cc1ccc2c(O)cc(-c3csc4ccccc34)nc2n1	< 0.01 µM (active)	< 0.01 µM (active)	< 0.01 µM (active)	< 0.01 µM (active)	0.021 µM (active)	< 0.01 µM (active)	< 0.0151	21.2 µM (inactive)	< 0.01 µM (active)	0.0139 µM (active)	< 0.0138 µM (active)	< 0.01 µM (active)	0.321 µM (active)	< 0.01 µM (active)	< 0.01 µM (active)	0.0239 µM (active)	< 0.01 µM (active)	< 0.01 µM (active)	< 0.0112 µM (active)	< 0.01 µM (active)
[O-][S+](Cc1ccccc1)c1ccccc1Cn1cccc1 (centres undefined)	> 100 µM (inactive)	–	> 100 µM (inactive)	42.8 µM (inactive)	> 100 µM (inactive)	> 100 µM (inactive)	> 100	> 100 µM (inactive)	> 100 µM (inactive)	> 100 µM (inactive)	> 100 µM (inactive)	> 100 µM (inactive)	96.6 µM (inactive)	> 100 µM (inactive)	> 100 µM (inactive)	> 100 µM (inactive)	> 100 µM (inactive)	> 100 µM (inactive)	> 100 µM (inactive)	> 100 µM (inactive)
CC(=O)C1=CC=C/C1=N\Nc1ccccc1	21.1 µM (inactive)	3.67 µM (inactive)	3.22 µM (inactive)	11.6 µM (inactive)	10 µM (inactive)	0.647 µM (active)	5.14	3.33 µM (inactive)	5.45 µM (inactive)	13.4 µM (inactive)	20.8 µM (inactive)	10.8 µM (inactive)	11.7 µM (inactive)	3.82 µM (inactive)	2.97 µM (inactive)	9.42 µM (inactive)	14.6 µM (inactive)	4.31 µM (inactive)	15.6 µM (inactive)	5.28 µM (inactive)
COc1cc(C(CN)N(C)C)cc(OC)c1OC (centres undefined)	> 100 µM (inactive)	> 100 µM (inactive)	> 100 µM (inactive)	> 100 µM (inactive)	> 100 µM (inactive)	> 100 µM (inactive)	> 100	> 100 µM (inactive)	> 100 µM (inactive)	–	> 100 µM (inactive)	> 100 µM (inactive)	> 100 µM (inactive)	> 100 µM (inactive)	> 100 µM (inactive)	77.8 µM (inactive)	> 100 µM (inactive)	> 100 µM (inactive)	> 100 µM (inactive)	> 100 µM (inactive)
CC(C)CN(CC#N)CC(C)C	> 100 µM (inactive)	> 100 µM (inactive)	> 100 µM (inactive)	> 100 µM (inactive)	> 100 µM (inactive)	> 100 µM (inactive)	> 100	> 100 µM (inactive)	> 100 µM (inactive)	–	> 100 µM (inactive)	> 100 µM (inactive)	> 100 µM (inactive)	> 100 µM (inactive)	> 100 µM (inactive)	> 100 µM (inactive)	> 100 µM (inactive)	> 100 µM (inactive)	> 100 µM (inactive)	> 100 µM (inactive)
COC(=O)c1c(O)ccc2c1c1cc3ccccc3c(O)c1n2CCc1ccc(OC)c(OC)c1	> 100 µM (inactive)	89.3 µM (inactive)	68.2 µM (inactive)	> 100 µM (inactive)	> 100 µM (inactive)	65.9 µM (inactive)	61.5	42.9 µM (inactive)	59.8 µM (inactive)	58.2 µM (inactive)	> 100 µM (inactive)	86.7 µM (inactive)	31.3 µM (inactive)	–	> 100 µM (inactive)	15.5 µM (inactive)	59.4 µM (inactive)	91.8 µM (inactive)	26.2 µM (inactive)	51.6 µM (inactive)
CC1=C(C)C1[N+](=O)[O-]	> 100 µM (inactive)	> 100 µM (inactive)	> 100 µM (inactive)	> 100 µM (inactive)	> 100 µM (inactive)	43.9 µM (inactive)	> 100	> 100 µM (inactive)	> 100 µM (inactive)	–	> 100 µM (inactive)	> 100 µM (inactive)	> 100 µM (inactive)	> 100 µM (inactive)	> 100 µM (inactive)	> 100 µM (inactive)	82.6 µM (inactive)	> 100 µM (inactive)	> 100 µM (inactive)	> 100 µM (inactive)
Cc1ccc(/N=c2/oc3c(ccc4ccccc43)nc2Nc2ccc(C)cc2)cc1	> 100 µM (inactive)	> 100 µM (inactive)	–	> 100 µM (inactive)	> 100 µM (inactive)	> 100 µM (inactive)	> 100	> 100 µM (inactive)	> 100 µM (inactive)	> 100 µM (inactive)	> 100 µM (inactive)	–	> 100 µM (inactive)	> 100 µM (inactive)	> 100 µM (inactive)	> 100 µM (inactive)	> 100 µM (inactive)	> 100 µM (inactive)	> 100 µM (inactive)	> 100 µM (inactive)
CC(=O)Oc1ccc(OC(Oc2ccccc2)c2ccccc2)cc1 (centres undefined)	27.3 µM (inactive)	34 µM (inactive)	21.2 µM (inactive)	26.1 µM (inactive)	18.9 µM (inactive)	12.6 µM (inactive)	33.9	39.9 µM (inactive)	30 µM (inactive)	–	36.2 µM (inactive)	17.5 µM (inactive)	19 µM (inactive)	38.6 µM (inactive)	17.5 µM (inactive)	40.7 µM (inactive)	23.6 µM (inactive)	23.8 µM (inactive)	–	50.9 µM (inactive)
CN(/N=C\c1ccc2ccccc2c1)C1=NCCCCN1	–	17.6 µM (inactive)	36.5 µM (inactive)	12.5 µM (inactive)	21.9 µM (inactive)	15.1 µM (inactive)	30.6	31.6 µM (inactive)	16.7 µM (inactive)	23.8 µM (inactive)	19.2 µM (inactive)	–	0.124 µM (active)	17.9 µM (inactive)	18 µM (inactive)	16.1 µM (inactive)	14.9 µM (inactive)	15.8 µM (inactive)	13.8 µM (inactive)	26.7 µM (inactive)
